Results published in patent US8030071B2, “Restoration of cholesterol independence and its use as a selectable marker in NS0 cell culture” (priority 2005, dated 2011).

Columns and labels:
NS0 cells [1] = assay: Growth response of NS0 cells in 24-well plates to cholesterol biosynthesis precursors/intermediates; format: cell-based, mouse; conditions: cholesterol-free CD Hybridoma medium, 4 mg/ml fatty acid-free BSA, three concentrations per precursor
Experimental: Cells and cell culture. […] Growth response of NS0 cells to various cholesterol biosynthesis pathway precursors and intermediates was studied in CD Hybridoma medium (Invitrogen, Carlsbad, Calif., USA) without cholesterol-lipid concentrate. […] Each well containing 1.5 ml precursor-supplemented medium was seeded with 2×10^5 cells/ml. NS0 cells cultured in the presence of cholesterol served as the positive control. Different intermediates were dissolved in 100% ethanol and added to the culture medium along with 4 mg/ml fatty acid-free BSA (Sigma, St. Louis, Mo., USA). […] All test conditions were performed in duplicate. The medium was supplemented with 4 mg/ml fatty acid-free BSA.

NS0 cells [2] = assay: 5-azacytidine treatment and limiting dilution plating for cholesterol independent clones; format: cell-based, mouse
Experimental: Treatment with 5-azacytidine (5azaC) and isolation of cholesterol independent clones. NS0 cells at 200,000 cells/ml were treated with 5azaC (1 μM and 5 μM) in tissue culture flasks. After 48 hrs, the cells were washed and limiting dilution plating was carried out in 10 96-well plates at a dilution of 2,000 cells/well using CD Hybridoma medium without cholesterol supplement. Untreated NS0 cells were also plated in cholesterol-free medium as a control for background cholesterol independent variants in the cell population. The plates were incubated at 5% CO2, 37° C. and saturated humidity for 1-2 weeks.
5azaC treated cells were aliquoted into 96-well cell culture plates containing cholesterol-free medium. […] Single cell colonies were isolated from the 96-well culture plates and expanded to tissue culture flasks for further characterization.

Hsd17b7 = Hsd17b7 transcription after 5-azacytidine treatment (real-time PCR); format: cell-based, mouse; conditions: NS0 cells treated with 5-azacytidine
Experimental: Reverse Transcription and Real-time comparative quantitative PCR. Total RNA was extracted from cells in exponential growth phase using the RNeasy Mini Kit (Qiagen, Valencia, Calif., USA), followed by reverse transcription with Superscript™ II RNase H^− Reverse Transcriptase (Invitrogen). For real-time comparative PCR analysis, samples were prepared using QuantiTect SYBR Green PCR kit (Qiagen) and reactions run on ABI 7700 (Applied Biosystems, Foster City, Calif., USA). Samples were analyzed in duplicates and β-actin was used as the normalization message. The fold change was calculated using the comparative CT method.

other systems = conditions: baseline spontaneous reactivation frequency of 10^−5 or less (Holliday et al.); cited from earlier work
NS0 cells [3] = assay: Growth kinetics of NS0 cells in tissue culture flasks with sterol supplement; format: cell-based, mouse; conditions: 5.0 μg/ml sterol, 4 mg/ml fatty acid-free BSA; for maximum cell density: after 70 hrs in culture; for growth of NS0 cells supported: tissue culture flasks
Experimental: The medium in all four flasks was supplemented with 4 mg/ml fatty acid-free BSA.
Cells and cell culture. NS0 and NS0_r, the cholesterol independent revertant, were obtained from Pfizer, Inc. (St. Louis, Mo.) and have been described previously (Seth et al., Biotechnol Bioeng, 90:552-67, 2005). Growth response of NS0 cells to various cholesterol biosynthesis pathway precursors and intermediates was studied in CD Hybridoma medium (Invitrogen, Carlsbad, Calif., USA) without cholesterol-lipid concentrate. […] Each well containing 1.5 ml precursor-supplemented medium was seeded with 2×10^5 cells/ml. NS0 cells cultured in the presence of cholesterol served as the positive control. Different intermediates were dissolved in 100% ethanol and added to the culture medium along with 4 mg/ml fatty acid-free BSA (Sigma, St. Louis, Mo., USA). […] Citric acid anhydrous, mevalonolactone, squalene, lanosterol, lathosterol, 7-dehydrocholesterol and cholesterol powder were purchased from Sigma (St. Louis, Mo., USA). All test conditions were performed in duplicate. The medium was supplemented with 4 mg/ml fatty acid-free BSA. Presence of BSA facilitates uptake of the sterol precursors (Sato et al., Mol Biol Med, 2, 121-34:1984).
In order to verify the block between lanosterol and lathosterol in the cholesterol biosynthetic pathway, growth kinetics of NS0 cells in the presence of lanosterol (5.0 μg/ml), lathosterol (5.0 μg/ml) and cholesterol (5.0 μg/ml) were determined. Cells were also grown in basal medium supplemented with fatty acid-free BSA only (FIG. 2b). […] Cells attained a maximum cell density of 4×10^6 cells/ml after 70 hrs in culture with lathosterol, compared to 3×10^6 cells/ml in medium supplemented with cholesterol. These observations were consistent over repeated cultures. The results support the notion that the block between lanosterol and lathosterol in the biosynthesis of cholesterol in NS0 is at least partly responsible for cholesterol auxotrophy in this cell line.

Compound	growth of NS0 cells supported by precursor/intermediate (NS0 cells [1])	maximum cell density (NS0 cells [3])	growth of NS0 cells supported (NS0 cells [3])	other results
C[C@@]1(O)CCOC(=O)C1 [mevalonolactone]	Growth was not supported			
Nc1ncn([C@@H]2O[C@H](CO)[C@@H](O)[C@H]2O)c(=O)n1 [5azaC, 5-azacytidine]				reversion rate to cholesterol independence (NS0 cells [2]; 1 μM 5azaC): less than 1×10^−6; Survival frequency of wells in a 96-well plate culture (NS0 cells [2]; 5 μM 5azaC, 2,000 cells/well, cholesterol-free medium): ~80 % of wells; cholesterol revertants after exposure (NS0 cells [2]; 5 μM 5azaC, 48 hrs, then cholesterol-free medium): many cholesterol revertants; transcriptional repression of Hsd17b7 (Hsd17b7): relieved; reactivated cells (other systems): 10-30%
CC(C)CCC[C@@H](C)[C@H]1CC[C@H]2C3=CC[C@H]4C[C@@H](O)CC[C@]4(C)[C@H]3CC[C@]12C [lathosterol]	able to support the growth of cells	4×10^6 cells/ml	effective in promoting the growth of NS0 cells	
CC(C)CCC[C@@H](C)[C@H]1CC[C@H]2[C@@H]3CC=C4C[C@@H](O)CC[C@]4(C)[C@H]3CC[C@]12C [cholesterol]		3×10^6 cells/ml		
CC(C)=CCC[C@@H](C)[C@H]1CC[C@@]2(C)C3=C(CC[C@]12C)[C@@]1(C)CC[C@H](O)C(C)(C)[C@@H]1CC3 [lanosterol]	Growth was not supported		unable to support the growth of NS0 cells	
CC(C)=CCC/C(C)=C/CC/C(C)=C/CC/C=C(\C)CC/C=C(\C)CCC=C(C)C [squalene]	Growth was not supported			
